Results from ChEMBL document CHEMBL1201862, “PubChem BioAssay data set” (2004).
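48-hour exposure; five concentrations; linearly interpolated endpoints. GI50 = concentration required for 50% inhibition of growth.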 The source made the active and inactive calls. Rule as the data show it: active = GI50 up to about 1.1 µM and inactive = higher.

How the values were obtained:
Test in all cases: DTP human tumour cell line panel, 48 h
IGROV-1 = test system: IGROV-1
HOP-62 = test system: HOP-62
K562 = test system: K562
MCF7 = test system: MCF7
SF-539 = test system: SF-539
LOX IMVI = test system: LOX IMVI
HCT-15 = test system: HCT-15
DU-145 = test system: DU-145
U-251 = test system: U-251
OVCAR-3 = test system: OVCAR-3
SK-MEL-2 = test system: SK-MEL-2
PC-3 = test system: PC-3
TK-10 = test system: TK-10
BT-549 = test system: BT-549
CAKI-1 = test system: CAKI-1
UACC-257 = test system: UACC-257
A549 = test system: A549
HCT-116 = test system: HCT-116
RXF 393 = test system: RXF 393
DLD-1 = test system: DLD-1

SMILES | GI50 (IGROV-1) | GI50 (HOP-62) | GI50 (K562) | GI50 (MCF7) | GI50 (SF-539) | GI50 (LOX IMVI) | GI50 (HCT-15) | GI50 (DU-145) | GI50 (U-251) | GI50 (OVCAR-3) | GI50 (SK-MEL-2) | GI50 (PC-3) | GI50 (TK-10) | GI50 (BT-549) | GI50 (CAKI-1) | GI50 (UACC-257) | GI50 (A549) | GI50 (HCT-116) | GI50 (RXF 393) | GI50 (DLD-1)
CC(C)=CC(O)C/C(C)=C/CC/C(C)=C/CCC1(C)C(CCCO)/C(=C(/C)C=O)CCC1(C)O (configuration not stated) | 24.8 µM (inactive) | 25.9 µM (inactive) | 2.99 µM (inactive) | 37.4 µM (inactive) | 25.1 µM (inactive) | 32.5 µM (inactive) | 46.3 µM | 57 µM (inactive) | 34 µM (inactive) | 86.1 µM (inactive) | 59.3 µM (inactive) | 44.8 µM (inactive) | 30.3 µM (inactive) | 40.6 µM (inactive) | 41.9 µM (inactive) | 31.5 µM (inactive) | 28.4 µM (inactive) | 40 µM (inactive) | 25.7 µM (inactive) | 
O=Cc1cn(S(=O)(=O)c2ccccc2)c2ccccc12 | > 100 µM (inactive) | > 100 µM (inactive) | 19.9 µM (inactive) |  | 27.5 µM (inactive) | 20.6 µM (inactive) | 35.2 µM |  | 27.6 µM (inactive) | 41 µM (inactive) |  |  | > 100 µM (inactive) |  |  | 29.6 µM (inactive) | > 100 µM (inactive) | 20 µM (inactive) | 95.5 µM (inactive) | 27.2 µM (inactive)
CCCCCCCC1(N=[N+]=[N-])C(=O)Nc2ccccc2C1=O (configuration not stated) | 12.1 µM (inactive) | 17.7 µM (inactive) | 16.4 µM (inactive) | 19.1 µM (inactive) | 15.7 µM (inactive) | 13.3 µM (inactive) | 21.9 µM | 14.9 µM (inactive) | 15.1 µM (inactive) | 16.1 µM (inactive) | 16.8 µM (inactive) | 11.5 µM (inactive) | 17.2 µM (inactive) | 16.7 µM (inactive) | 14.7 µM (inactive) | 21 µM (inactive) | 14.8 µM (inactive) | 17.3 µM (inactive) | 12.6 µM (inactive) | 
Cc1ccccc1C(=O)N1CCN(C(=O)c2ccccc2C)CC1 | > 100 µM (inactive) | > 100 µM (inactive) | > 100 µM (inactive) |  | > 100 µM (inactive) | > 100 µM (inactive) | > 100 µM |  | > 100 µM (inactive) | > 100 µM (inactive) |  |  | > 100 µM (inactive) |  | > 100 µM (inactive) | > 100 µM (inactive) | > 100 µM (inactive) | > 100 µM (inactive) | > 100 µM (inactive) | > 100 µM (inactive)
COc1cc2ccnc(C#N)c2cc1OCc1ccccc1 |  | 35.6 µM (inactive) | > 100 µM (inactive) |  | 49.9 µM (inactive) |  | > 100 µM |  | 48 µM (inactive) | > 100 µM (inactive) | 64.1 µM (inactive) |  | > 100 µM (inactive) |  | > 100 µM (inactive) | > 100 µM (inactive) | > 100 µM (inactive) | > 100 µM (inactive) |  | > 100 µM (inactive)
Cc1c(C(=O)N2CCN(c3ccc([N+](=O)[O-])cc3)CC2)[n+]([O-])c2cc(Cl)c(Cl)cc2[n+]1[O-] | 22.2 µM (inactive) | 21.7 µM (inactive) | 26.5 µM (inactive) | 16.2 µM (inactive) | 18.6 µM (inactive) | 29.9 µM (inactive) | 17.1 µM | 19.8 µM (inactive) | 20.9 µM (inactive) | 22.8 µM (inactive) | 31.3 µM (inactive) | 19.1 µM (inactive) | 21.6 µM (inactive) | 16.9 µM (inactive) | 25.1 µM (inactive) | 35.6 µM (inactive) | 20.2 µM (inactive) | 19 µM (inactive) | 13.6 µM (inactive) | 
CCCCC(=O)OC[n+]1cccc(-c2c(COC(=O)NC(C)C)c(COC(=O)NC(C)C)c3n2CCC3)c1 | 51.5 µM (inactive) | 56.1 µM (inactive) | 38.6 µM (inactive) | 28.8 µM (inactive) | 28.6 µM (inactive) | 21.7 µM (inactive) | 53.3 µM | 25.8 µM (inactive) | 45.3 µM (inactive) | 57.3 µM (inactive) | 26.4 µM (inactive) | 60.7 µM (inactive) | 42.1 µM (inactive) | 28.8 µM (inactive) | 12.3 µM (inactive) | 44.7 µM (inactive) | 81.1 µM (inactive) | 37.2 µM (inactive) | 22.9 µM (inactive) | 
O=C(N/N=C1\CCc2ccccc21)N/N=C1\CCc2ccccc21 | > 100 µM (inactive) | > 100 µM (inactive) | > 100 µM (inactive) | > 100 µM (inactive) | > 100 µM (inactive) | > 100 µM (inactive) | > 100 µM | > 100 µM (inactive) | > 100 µM (inactive) | > 100 µM (inactive) | > 100 µM (inactive) | > 100 µM (inactive) | > 100 µM (inactive) | > 100 µM (inactive) | > 100 µM (inactive) | > 100 µM (inactive) | > 100 µM (inactive) | > 100 µM (inactive) | > 100 µM (inactive) | 
